Experimental data from US20020137929A1, “1 - (3-heterocyclylphenyl) isothiourea, -isourea, -guanidine and -amidine herbicidal agents” (Intellectual Property Department, BASF Aktiengesellschaft, priority 1998, published 2002).

Tests used:
[1] = test system: IPOHE (Morningglory, Ivyleaf); experiment: Preemergence herbicidal evaluation; type: in vivo, Ipomoea hederacea; settings: preemergence, rated 4-5 weeks after treatment, 0-9 scale
Procedure, shortened: (§1)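 Steps: mix seeds into potting soil; plant atop ~1 inch soil; spray compound in aqueous acetone (~0.0156-0.500 kg/ha equivalent); maintain in greenhouse with watering; rate visually 0-9 versus control at 4-5 weeks.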

[2] = test system: IPOHE (Morningglory, Ivyleaf); experiment: Postemergence herbicidal evaluation; type: in vivo, Ipomoea hederacea; settings: postemergence
Procedure, shortened: (§2)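 Two-week-old seedlings sprayed with compound in 50/50 acetone/water plus 0.5% TWEEN 20, at about 0.0156 to 0.500 kg/ha, nozzle at 40 psi. Kept in greenhouse; rated visually 4-5 weeks after treatment on a 0-9 scale versus control, repeat tests averaged.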

[3] = test system: ABUTH (Velvetleaf); experiment: Postemergence herbicidal evaluation; type: in vivo, Abutilon theophrasti; settings: postemergence
Procedure, shortened: as §2

[4] = test system: ZEAMX (Corn, Field); experiment: Postemergence herbicidal evaluation; type: in vivo, Zea mays; settings: postemergence
Procedure, shortened: as §2

[5] = test system: SETVI (Foxtail, Green); experiment: Postemergence herbicidal evaluation; type: in vivo, Setaria viridis; settings: postemergence
Procedure, shortened: as §2

[6] = test system: GLXMAW (Soybean, Williams); experiment: Postemergence herbicidal evaluation; type: in vivo, Glycine max, (L.) Merr. cv Williams; settings: postemergence
Procedure, shortened: as §2

[7] = test system: ECHORC (Watergrass (Calif.)); experiment: Preemergence weed control under flooded paddy conditions; type: in vivo, Echinochloa oryzoides; settings: rated 3-4 weeks after treatment
Procedure, shortened: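 First, seeds or propagules go into the top 0.5 cm of silt loam; next, water is held 1.5 to 3 cm over the soil; then compound (50/50 acetone/water) is pipetted into it at about 0.0313 to 0.500 kg/ha; finally plants are rated visually 0-9 after three to four weeks.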

[8] = test system: ECHCG (Barnyardgrass); experiment: Preemergence herbicidal evaluation; type: in vivo, Echinochloa crus-galli; settings: preemergence, rated 4-5 weeks after treatment, 0-9 scale
Procedure, shortened: as §1

[9] = test system: CYPSE (Flatsedge); experiment: Preemergence weed control under flooded paddy conditions; type: in vivo, Cyperus serotinus; settings: rated 3-4 weeks after treatment
Procedure, shortened: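 Values are visual 0-9 scores against a control for a preemergence application into paddy flood water at about 0.0313 to 0.500 kg/ha. Greenhouse duration was three to four weeks.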

[10] = test system: ABUTH (Velvetleaf); experiment: Preemergence herbicidal evaluation; type: in vivo, Abutilon theophrasti; settings: preemergence, rated 4-5 weeks after treatment, 0-9 scale
Procedure, shortened: as §1

[11] = test system: CASOB (Sicklepod); experiment: Preemergence herbicidal evaluation; type: in vivo, Cassia obtusifolia; settings: preemergence, rated 4-5 weeks after treatment, 0-9 scale
Procedure, shortened: as §1

[12] = test system: ECHORC (Watergrass (Calif.)); experiment: Postemergence weed control under flooded paddy conditions; type: in vivo, Echinochloa oryzoides; settings: postemergence weeds, rated 3 to 4 weeks after treatment
Procedure, shortened: (§3)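 Herbicidal effect is judged by eye on a 0–9 scale versus control, 3–4 weeks after dosing. Dosing is into flood water kept 1.5–3 cm over the soil, at about 0.0313–0.500 kg/ha in aqueous/acetone 50/50 v/v, on 3–5 cm weeds and 1.5–2.5-leaf rice seedlings.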

[13] = test system: CYPIR (Rice Flatsedge); experiment: as above; type: in vivo, Cyperus iria; settings: postemergence weeds, rated 3 to 4 weeks after treatment
Procedure, shortened: as §3

[14] = test system: AMBEL (Ragweed, Common); experiment: Preemergence herbicidal evaluation; type: in vivo, Ambrosia artemisifolia; settings: preemergence, rated 4-5 weeks after treatment, 0-9 scale
Procedure, shortened: as §1

What does the source list for `CCOC(=O)CN1C(=O)C(CC(=O)NOC)SC1=Nc1cc(-n2c(=O)cc(C(F)(F)F)n(C)c2=O)c(F)cc1Cl` (centres unmarked) [Compound 83, Ethyl 2-{{2-chloro-5-[3,6-dihydro-3-methyl-2,6-dioxo-4-(trifluoromethyl)-1(2H)-pyrimidinyl]-4-fluorophenyl}imino}-5-[(methoxycarbamoyl)methyl]-4-oxo-3-thiazolidineacetate]?
IPOHE rating ([1]; 0.0156 kg/ha): 0.0; IPOHE rating ([1]; 0.0313 kg/ha): 0.0; IPOHE rating ([1]; 0.0625 kg/ha): 0.0; IPOHE rating ([1]; 0.1250 kg/ha): 3.0; IPOHE rating ([1]; 0.2500 kg/ha): 9.0; IPOHE rating ([1]; 0.5000 kg/ha): 9.0; IPOHE herbicidal rating ([2]; rate 0.0156 kg/ha): 9.0; IPOHE herbicidal rating ([2]; rate 0.0313 kg/ha): 9.0; IPOHE herbicidal rating ([2]; rate 0.0625 kg/ha): 9.0; IPOHE herbicidal rating ([2]; rate 0.1250 kg/ha): 9.0; ABUTH herbicidal rating ([3]; rate 0.0156 kg/ha): 9.0; ABUTH herbicidal rating ([3]; rate 0.0313 kg/ha): 9.0; ABUTH herbicidal rating ([3]; rate 0.0625 kg/ha): 9.0; ABUTH herbicidal rating ([3]; rate 0.1250 kg/ha): 9.0; ZEAMX herbicidal rating ([4]; rate 0.0156 kg/ha): 4.5; ZEAMX herbicidal rating ([4]; rate 0.0313 kg/ha): 7.5; ZEAMX herbicidal rating ([4]; rate 0.0625 kg/ha): 7.5; ZEAMX herbicidal rating ([4]; rate 0.1250 kg/ha): 7.5; SETVI herbicidal rating ([5]; rate 0.0156 kg/ha): 0.0; SETVI herbicidal rating ([5]; rate 0.0313 kg/ha): 2.0; SETVI herbicidal rating ([5]; rate 0.0625 kg/ha): 8.0; SETVI herbicidal rating ([5]; rate 0.1250 kg/ha): 8.0; GLXMAW herbicidal rating ([6]; rate 0.0156 kg/ha): 4.5; GLXMAW herbicidal rating ([6]; rate 0.0313 kg/ha): 6.5; GLXMAW herbicidal rating ([6]; rate 0.0625 kg/ha): 8.0; GLXMAW herbicidal rating ([6]; rate 0.1250 kg/ha): 8.5; ECHORC herbicidal effect rating ([7]; 0.0313 kg/ha): 5.0; ECHORC herbicidal effect rating ([7]; 0.0625 kg/ha): 6.0; ECHORC herbicidal effect rating ([7]; 0.1250 kg/ha): 7.0; ECHORC herbicidal effect rating ([7]; 0.2500 kg/ha): 7.0; ECHCG rating ([8]; 0.0156 kg/ha): 0.0; ECHCG rating ([8]; 0.0313 kg/ha): 0.0; ECHCG rating ([8]; 0.0625 kg/ha): 0.0; ECHCG rating ([8]; 0.1250 kg/ha): 0.0; ECHCG rating ([8]; 0.2500 kg/ha): 0.0; ECHCG rating ([8]; 0.5000 kg/ha): 4.0; CYPSE herbicidal effect rating ([9]; 0.0313 kg/ha): 0.0; CYPSE herbicidal effect rating ([9]; 0.1250 kg/ha): 3.0; CYPSE herbicidal effect rating ([9]; 0.2500 kg/ha): 5.0; ABUTH rating ([10]; 0.0156 kg/ha): 4.0; ABUTH rating ([10]; 0.0313 kg/ha): 6.0; ABUTH rating ([10]; 0.0625 kg/ha): 9.0; ABUTH rating ([10]; 0.1250 kg/ha): 9.0; ABUTH rating ([10]; 0.2500 kg/ha): 9.0; ABUTH rating ([10]; 0.5000 kg/ha): 9.0; CASOB rating ([11]; 0.0156 kg/ha): 0.0; CASOB rating ([11]; 0.0313 kg/ha): 0.0; CASOB rating ([11]; 0.0625 kg/ha): 0.0; CASOB rating ([11]; 0.1250 kg/ha): 0.0; CASOB rating ([11]; 0.2500 kg/ha): 3.0; CASOB rating ([11]; 0.5000 kg/ha): 3.0; Herbicidal rating ECHORC ([12]; Rate 0.0313 kg/ha): 5.0; Herbicidal rating ECHORC ([12]; Rate 0.0625 kg/ha): 6.0; Herbicidal rating ECHORC ([12]; Rate 0.1250 kg/ha): 7.0; Herbicidal rating ECHORC ([12]; Rate 0.2500 kg/ha): 7.0; Herbicidal rating CYPIR ([13]; Rate 0.0313 kg/ha): 5.0; Herbicidal rating CYPIR ([13]; Rate 0.0625 kg/ha): 6.0; Herbicidal rating CYPIR ([13]; Rate 0.1250 kg/ha): 6.0; Herbicidal rating CYPIR ([13]; Rate 0.2500 kg/ha): 7.0; AMBEL rating ([14]; 0.0156 kg/ha): 0.0; AMBEL rating ([14]; 0.0313 kg/ha): 0.0; AMBEL rating ([14]; 0.0625 kg/ha): 0.0; AMBEL rating ([14]; 0.1250 kg/ha): 9.0; AMBEL rating ([14]; 0.2500 kg/ha): 9.0; AMBEL rating ([14]; 0.5000 kg/ha): 9.0

What does the source list for `C=CCN1C(=O)C(CC(=O)NC)SC1=Nc1cc(-n2c(=O)cc(C(F)(F)F)n(C)c2=O)c(F)cc1Cl` (centres unmarked) [Compound 84, 3-Allyl-2-{{2-chloro-5-[3,6-dihydro-3-methyl-2,6-dioxo-4-(trifluoromethyl)-1(2H)-pyrimidinyl]-4-fluorophenyl}imino}-N-methyl-4-oxo-5-thiazolidineacetamide]?
IPOHE rating ([1]; 0.0156 kg/ha): 0.0; IPOHE rating ([1]; 0.0313 kg/ha): 0.0; IPOHE rating ([1]; 0.0625 kg/ha): 0.0; IPOHE rating ([1]; 0.1250 kg/ha): 1.0; IPOHE rating ([1]; 0.2500 kg/ha): 9.0; IPOHE rating ([1]; 0.5000 kg/ha): 9.0; IPOHE herbicidal rating ([2]; rate 0.0156 kg/ha): 9.0; IPOHE herbicidal rating ([2]; rate 0.0313 kg/ha): 9.0; IPOHE herbicidal rating ([2]; rate 0.0625 kg/ha): 9.0; IPOHE herbicidal rating ([2]; rate 0.1250 kg/ha): 9.0; ABUTH herbicidal rating ([3]; rate 0.0156 kg/ha): 9.0; ABUTH herbicidal rating ([3]; rate 0.0313 kg/ha): 9.0; ABUTH herbicidal rating ([3]; rate 0.0625 kg/ha): 9.0; ABUTH herbicidal rating ([3]; rate 0.1250 kg/ha): 9.0; ZEAMX herbicidal rating ([4]; rate 0.0156 kg/ha): 4.0; ZEAMX herbicidal rating ([4]; rate 0.0313 kg/ha): 4.0; ZEAMX herbicidal rating ([4]; rate 0.0625 kg/ha): 4.5; ZEAMX herbicidal rating ([4]; rate 0.1250 kg/ha): 5.0; SETVI herbicidal rating ([5]; rate 0.0156 kg/ha): 0.0; SETVI herbicidal rating ([5]; rate 0.0313 kg/ha): 0.0; SETVI herbicidal rating ([5]; rate 0.0625 kg/ha): 0.0; SETVI herbicidal rating ([5]; rate 0.1250 kg/ha): 2.0; GLXMAW herbicidal rating ([6]; rate 0.0156 kg/ha): 4.0; GLXMAW herbicidal rating ([6]; rate 0.0313 kg/ha): 4.5; GLXMAW herbicidal rating ([6]; rate 0.0625 kg/ha): 4.5; GLXMAW herbicidal rating ([6]; rate 0.1250 kg/ha): 8.5; ECHORC herbicidal effect rating ([7]; 0.0313 kg/ha): 4.0; ECHORC herbicidal effect rating ([7]; 0.0625 kg/ha): 5.0; ECHORC herbicidal effect rating ([7]; 0.1250 kg/ha): 7.0; ECHORC herbicidal effect rating ([7]; 0.2500 kg/ha): 9.0; ECHCG rating ([8]; 0.0156 kg/ha): 0.0; ECHCG rating ([8]; 0.0313 kg/ha): 0.0; ECHCG rating ([8]; 0.0625 kg/ha): 0.0; ECHCG rating ([8]; 0.1250 kg/ha): 0.0; ECHCG rating ([8]; 0.2500 kg/ha): 2.0; ECHCG rating ([8]; 0.5000 kg/ha): 9.0; CYPSE herbicidal effect rating ([9]; 0.0313 kg/ha): 0.0; CYPSE herbicidal effect rating ([9]; 0.0625 kg/ha): 3.0; CYPSE herbicidal effect rating ([9]; 0.1250 kg/ha): 9.0; CYPSE herbicidal effect rating ([9]; 0.2500 kg/ha): 9.0; ABUTH rating ([10]; 0.0156 kg/ha): 2.0; ABUTH rating ([10]; 0.0313 kg/ha): 2.0; ABUTH rating ([10]; 0.0625 kg/ha): 7.0; ABUTH rating ([10]; 0.1250 kg/ha): 9.0; ABUTH rating ([10]; 0.2500 kg/ha): 9.0; ABUTH rating ([10]; 0.5000 kg/ha): 9.0; CASOB rating ([11]; 0.0156 kg/ha): 0.0; CASOB rating ([11]; 0.0313 kg/ha): 0.0; CASOB rating ([11]; 0.0625 kg/ha): 0.0; CASOB rating ([11]; 0.1250 kg/ha): 0.0; CASOB rating ([11]; 0.2500 kg/ha): 0.0; CASOB rating ([11]; 0.5000 kg/ha): 9.0; Herbicidal rating ECHORC ([12]; Rate 0.0313 kg/ha): 4.0; Herbicidal rating ECHORC ([12]; Rate 0.0625 kg/ha): 5.0; Herbicidal rating ECHORC ([12]; Rate 0.1250 kg/ha): 7.0; Herbicidal rating ECHORC ([12]; Rate 0.2500 kg/ha): 9.0; Herbicidal rating CYPIR ([13]; Rate 0.0313 kg/ha): 3.0; Herbicidal rating CYPIR ([13]; Rate 0.0625 kg/ha): 7.0; Herbicidal rating CYPIR ([13]; Rate 0.1250 kg/ha): 9.0; Herbicidal rating CYPIR ([13]; Rate 0.2500 kg/ha): 9.0; AMBEL rating ([14]; 0.0156 kg/ha): 0.0; AMBEL rating ([14]; 0.0313 kg/ha): 3.0; AMBEL rating ([14]; 0.0625 kg/ha): 4.0; AMBEL rating ([14]; 0.1250 kg/ha): 9.0; AMBEL rating ([14]; 0.2500 kg/ha): 9.0; AMBEL rating ([14]; 0.5000 kg/ha): 9.0
